Experimental findings from ChEMBL document CHEMBL4028888, “Design of MC1R Selective γ-MSH Analogues with Canonical Amino Acids Leads to Potency and Pigmentation” (J Med Chem, 2017) are described below.

The target in data set [1] is T1, Melanocortin receptor 3 (Homo sapiens, UniProt P41968). Nature of the data set: Displacement of [125I]-NDP-alpha-MSH from human MC3R expressed in HEK293 cells at 10 uM after 40 mins by gamma counting method. Format: cell-based. On the technique in general: Displacement assays read how much labelled ligand stays bound in the presence of the test substance.
Data set [2] concerns the target T1, Melanocortin receptor 3. Nature of the data set: Agonist activity at human MC3R expressed in HEK293 cells assessed as induction of intracellular cAMP accumulation at 10 uM after 3 mins relative to MT-2. Format: cell-based. The note with it: 0.05 h, read-out: %max.
Data set [3] deals with T2, Melanocortin receptor 5 (Homo sapiens, UniProt P33032). Nature of the data set: Displacement of [125I]-NDP-alpha-MSH from human MC5R expressed in HEK293 cells at 10 uM after 40 mins by gamma counting method. Format: cell-based.
The target of data set [4] is T2, Melanocortin receptor 5. Nature of the data set: Agonist activity at human MC5R expressed in HEK293 cells assessed as induction of intracellular cAMP accumulation after 3 mins. Format: cell-based. The note with it: hek293, 0.05 h.
Data set [5] concerns the target T2, Melanocortin receptor 5. The data set is described as follows: Agonist activity at human MC5R expressed in HEK293 cells assessed as induction of intracellular cAMP accumulation at 10 uM after 3 mins relative to MT-2. The note with it: 0.05 h, read-out: %max. Format: cell-based. (Changes in cAMP serve as a functional read-out for many G protein-coupled receptors.)

Data set [6] addresses Melanocyte-stimulating hormone receptor (Homo sapiens) (UniProt Q01726). Nature of the data set: Displacement of [125I]-NDP-alpha-MSH from human MC1R expressed in HEK293 cells at 10 uM after 40 mins by gamma counting method. The class given is cell-based.
The target is the same in data set [7]. Nature of the data set: Agonist activity at human MC1R expressed in HEK293 cells assessed as induction of intracellular cAMP accumulation at 10 uM measured after 3 mins relative to MT-2. Format: functional, cell-based.
In data set [8] the target is T3, Melanocortin receptor 4 (Homo sapiens, UniProt P32245). Nature of the data set: Displacement of [125I]-NDP-alpha-MSH from human MC4R expressed in HEK293 cells at 10 uM after 40 mins by gamma counting method. Format: cell-based.
The test system of data set [9] is Anolis carolinensis. Nature of the data set: Induction of pigmentation effect in lizard at 2 ug/g, ip at 1 min post dose. The class given is functional, organism-based.
The test system of data set [10] is Anolis carolinensis. The data set is described as follows: Induction of pigmentation effect in lizard at 2 ug/g, ip at 24 hrs post dose. Format: functional, organism-based.
Data set [11] addresses T3, Melanocortin receptor 4. Nature of the data set: Agonist activity at human MC4R expressed in HEK293 cells assessed as induction of intracellular cAMP accumulation at 10 uM after 3 mins relative to MT-2. The class given is cell-based. The settings on record: 0.05 h, read-out: %max.
The target of data set [12] is Melanocyte-stimulating hormone receptor (Homo sapiens) (UniProt Q01726). The data set is described as follows: Displacement of [125I]-NDP-alpha-MSH from human MC1R expressed in HEK293 cells after 40 mins by gamma counting method. The class given is cell-based.

The source made the active and inactive calls. The calls are words filed in the database; no cut-off is given here. Where a SMILES comes first, the peptide text is derived from it.

Sequence of Melanocyte-stimulating hormone receptor (Homo sapiens) (Q01726 whole entry, looked up): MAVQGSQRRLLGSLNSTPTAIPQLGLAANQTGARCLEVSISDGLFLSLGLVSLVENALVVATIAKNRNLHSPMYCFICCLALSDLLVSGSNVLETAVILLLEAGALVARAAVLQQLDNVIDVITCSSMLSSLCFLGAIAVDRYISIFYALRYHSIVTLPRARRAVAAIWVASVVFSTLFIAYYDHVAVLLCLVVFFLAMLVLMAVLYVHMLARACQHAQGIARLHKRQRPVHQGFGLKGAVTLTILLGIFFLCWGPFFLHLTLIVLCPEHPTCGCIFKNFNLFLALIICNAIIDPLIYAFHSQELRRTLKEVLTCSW
T2 sequence (P33032 whole entry): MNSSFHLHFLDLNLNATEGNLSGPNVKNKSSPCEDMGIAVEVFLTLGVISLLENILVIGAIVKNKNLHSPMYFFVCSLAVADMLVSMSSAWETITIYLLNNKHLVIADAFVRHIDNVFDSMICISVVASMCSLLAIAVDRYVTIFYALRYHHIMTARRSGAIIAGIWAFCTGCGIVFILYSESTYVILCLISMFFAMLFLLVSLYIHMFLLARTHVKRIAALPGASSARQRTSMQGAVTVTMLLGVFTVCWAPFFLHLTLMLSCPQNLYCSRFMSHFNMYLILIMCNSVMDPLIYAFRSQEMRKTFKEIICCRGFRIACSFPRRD
T1 sequence (P41968 whole entry): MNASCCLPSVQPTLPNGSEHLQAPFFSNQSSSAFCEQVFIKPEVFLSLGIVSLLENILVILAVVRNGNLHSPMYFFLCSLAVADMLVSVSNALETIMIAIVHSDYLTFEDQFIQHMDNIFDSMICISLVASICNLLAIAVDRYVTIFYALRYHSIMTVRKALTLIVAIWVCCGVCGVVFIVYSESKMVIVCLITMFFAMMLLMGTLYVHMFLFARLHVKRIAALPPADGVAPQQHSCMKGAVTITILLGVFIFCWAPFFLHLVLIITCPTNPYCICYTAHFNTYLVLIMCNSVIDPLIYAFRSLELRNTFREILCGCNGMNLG
T3 sequence (P32245 whole entry): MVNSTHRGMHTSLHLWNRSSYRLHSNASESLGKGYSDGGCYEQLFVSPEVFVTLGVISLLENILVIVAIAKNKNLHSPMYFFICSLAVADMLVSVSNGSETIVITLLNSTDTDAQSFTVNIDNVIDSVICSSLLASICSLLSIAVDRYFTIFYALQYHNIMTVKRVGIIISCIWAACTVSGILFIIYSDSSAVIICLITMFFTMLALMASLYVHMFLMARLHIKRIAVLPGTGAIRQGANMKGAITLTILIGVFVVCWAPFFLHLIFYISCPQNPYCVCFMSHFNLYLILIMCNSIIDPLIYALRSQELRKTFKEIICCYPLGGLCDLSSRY

On to `CCCC[C@H](NC(=O)[C@@H](NC(=O)[C@@H](N)Cc1ccc(O)cc1)C(C)C)C(=O)NCC(=O)N[C@@H](Cc1c[nH]cn1)C(=O)N[C@H](Cc1ccc2ccccc2c1)C(=O)N[C@@H](CCCN=C(N)N)C(=O)NC(Cc1c[nH]c2ccccc12)C(=O)N[C@@H](CC(=O)O)C(=O)N[C@@H](CCCN=C(N)N)C(=O)N[C@@H](Cc1ccccc1)C(=O)NCC(N)=O` (stereo in doubt), for which the inhibition at 10 µM at Melanocortin receptor 3 [1], on Melanocortin receptor 5 [3] and at Melanocortin receptor 4 [8] was 100% each time. Moreover, the Emax at 10 µM on Melanocortin receptor 3 [2] and at Melanocortin receptor 5 [5] was 6% each time. Moreover, the Activity on Melanocortin receptor 5 [4] was 0%. In addition, in data set [6], the inhibition (usually how much of the control response was suppressed) was found to be 100%. Besides, the %max in data set [7] came out at 70%.

As to `CC(C)C[C@H](NC(=O)[C@H](Cc1ccccc1)NC(=O)[C@@H]1CCCN1C(=O)CNC(=O)[C@H](CC(C)C)NC(=O)[C@@H](NC(=O)[C@@H](N)Cc1ccc(O)cc1)C(C)C)C(=O)N[C@@H](Cc1ccccc1)C(=O)N[C@@H](CC(=O)O)C(=O)N[C@@H](CCCNC(=N)N)C(=O)N[C@@H](Cc1ccccc1)C(=O)NCC(N)=O` (H-YVLGPFLFDRFG-NH2), the Emax at 10 µM at Melanocortin receptor 5 [5] is 0%.

Consider `CC(C)C[C@H](NC(=O)[C@H](Cc1ccccc1)NC(=O)[C@H](Cc1cnc[nH]1)NC(=O)CNC(=O)[C@H](CC(C)C)NC(=O)[C@@H](NC(=O)[C@@H](N)Cc1ccc(O)cc1)C(C)C)C(=O)N[C@@H](Cc1c[nH]c2ccccc12)C(=O)N[C@@H](CC(=O)O)C(=O)N[C@@H](CCCNC(=N)N)C(=O)N[C@@H](Cc1ccccc1)C(=O)NCC(N)=O` (H-YVLGHFLWDRFG-NH2), for which the Emax at 10 µM at Melanocortin receptor 3 [2] worked out at 0%. Moreover, on Melanocortin receptor 5 [3], 10 µM produced 0% inhibition. The inhibition in data set [6] was found to be 100%.

For the compound `CC(C)C[C@H](NC(=O)[C@@H](NC(=O)[C@@H](N)Cc1ccc(O)cc1)C(C)C)C(=O)NCC(=O)N1CCC[C@H]1C(=O)N[C@@H](Cc1ccccc1)C(=O)N[C@@H](CCCNC(=N)N)C(=O)N[C@@H](Cc1c[nH]c2ccccc12)C(=O)N[C@@H](CC(=O)O)C(=O)N[C@@H](CCCNC(=N)N)C(=O)N[C@@H](Cc1ccccc1)C(=O)NCC(N)=O` (H-YVLGPFRWDRFG-NH2), the inhibition at 10 µM at Melanocortin receptor 3 [1] was 100%.

In data set [6], `CSCC[C@H](NC(=O)[C@H](CO)NC(=O)[C@H](Cc1ccc(O)cc1)NC(=O)[C@H](CO)NC(C)=O)C(=O)N[C@@H](CCC(=O)O)CN[C@@H](Cc1cnc[nH]1)C(=O)N[C@@H](Cc1ccccc1)C(=O)N[C@@H](CCCNC(=N)N)C(=O)N[C@@H](Cc1c[nH]c2ccccc12)C(=O)NCC(=O)N[C@@H](CCCCN)C(=O)N1CCC[C@H]1C(=O)N[C@H](C(N)=O)C(C)C` returned an inhibition of 100%. Further, the %max in [7] came out at 100%.

On to `CC(C)C[C@H](NC(=O)[C@H](Cc1ccccc1)NC(=O)[C@H](Cc1cnc[nH]1)NC(=O)CNC(=O)[C@H](CC(C)C)NC(=O)[C@@H](NC(=O)[C@@H](N)Cc1ccc(O)cc1)C(C)C)C(=O)N[C@@H](Cc1ccccc1)C(=O)N[C@@H](CC(=O)O)C(=O)N[C@@H](CCCNC(=N)N)C(=O)N[C@@H](Cc1ccccc1)C(=O)NCC(N)=O` (H-YVLGHFLFDRFG-NH2), for which, in the data set with Anolis carolinensis [9], the outcome was Active. This compound also came in with an inhibition at 10 µM on Melanocortin receptor 5 [3] of 0%. The same compound had an inhibition in data set [6] of 100%. In the data set on Anolis carolinensis [10], the result was inactive.

As for `CSCC[C@H](NC(=O)[C@@H](NC(=O)[C@@H](N)Cc1ccc(O)cc1)C(C)C)C(=O)NCC(=O)N[C@@H](Cc1cnc[nH]1)C(=O)N[C@@H](Cc1ccccc1)C(=O)N[C@@H](CCCNC(=N)N)C(=O)N[C@@H](Cc1c[nH]c2ccccc12)C(=O)N[C@@H](CC(=O)O)C(=O)N[C@@H](CCCNC(=N)N)C(=O)N[C@@H](Cc1ccccc1)C(=O)NCC(N)=O`, the Emax at 10 µM at Melanocortin receptor 4 [11] was 76%. The same compound yielded an inhibition at 10 µM on Melanocortin receptor 4 [8] of 100%.

As for `CC(C)C[C@H](NC(=O)[C@@H](NC(=O)[C@@H](N)Cc1ccc(O)cc1)C(C)C)C(=O)NCC(=O)N1CCC[C@H]1C(=O)N[C@@H](Cc1ccccc1)C(=O)N[C@@H](CCCNC(=N)N)C(=O)N[C@@H](Cc1ccccc1)C(=O)N[C@@H](CC(=O)O)C(=O)N[C@@H](CCCNC(=N)N)C(=O)N[C@@H](Cc1ccccc1)C(=O)NCC(N)=O` (H-YVLGPFRFDRFG-NH2), the Emax at 10 µM on Melanocortin receptor 3 [2] and at Melanocortin receptor 5 [5] was 0% each time. Besides, the inhibition in data set [12] turned out to be 0%. Further, the inhibition at 10 µM at Melanocortin receptor 4 [8] was found to be 0%.

The compound `CC(C)C[C@H](NC(=O)[C@H](Cc1ccccc1)NC(=O)[C@@H]1CCCN1C(=O)CNC(=O)[C@H](CC(C)C)NC(=O)[C@@H](NC(=O)[C@@H](N)Cc1ccc(O)cc1)C(C)C)C(=O)N[C@@H](Cc1c[nH]c2ccccc12)C(=O)N[C@@H](CC(=O)O)C(=O)N[C@@H](CCCNC(=N)N)C(=O)N[C@@H](Cc1ccccc1)C(=O)NCC(N)=O` (H-YVLGPFLWDRFG-NH2) came in with an inhibition at 10 µM on Melanocortin receptor 5 [3] of 32%. For the same compound, the Emax at 10 µM on Melanocortin receptor 5 [5] and at Melanocortin receptor 4 [11] was 0% in each case.

Regarding `CCCC[C@H](NC(=O)[C@@H](NC(=O)[C@H](Cc1ccc(O)cc1)NC(C)=O)C(C)C)C(=O)NCC(=O)N[C@@H](Cc1cnc[nH]1)C(=O)N[C@H](Cc1ccccc1)C(=O)N[C@@H](CCCNC(=N)N)C(=O)N[C@@H](Cc1c[nH]c2ccccc12)C(=O)N[C@@H](CC(=O)O)C(=O)N[C@@H](CCCNC(=N)N)C(=O)N[C@@H](Cc1ccccc1)C(=O)NCC(N)=O`, the inhibition at 10 µM at Melanocortin receptor 4 [8] came to 100%.

Regarding `CC(C)C[C@H](NC(=O)[C@@H](NC(=O)[C@@H](N)Cc1ccc(O)cc1)C(C)C)C(=O)NCC(=O)N[C@@H](Cc1cnc[nH]1)C(=O)N[C@@H](Cc1ccccc1)C(=O)N[C@@H](CCCNC(=N)N)C(=O)N[C@@H](Cc1c[nH]c2ccccc12)C(=O)N[C@@H](CC(=O)O)C(=O)N[C@@H](CCCNC(=N)N)C(=O)N[C@@H](Cc1ccccc1)C(=O)NCC(N)=O`, the Emax at 10 µM at Melanocortin receptor 5 [5] was found to be 0%. The compound further had an inhibition at 10 µM at Melanocortin receptor 4 [8] of 100%.
